pIC50, pKi: −log10 of the molar value. Active and inactive are the calls of the source. The calls are words filed in the database; no cut-off is given here.
Key:
[1] = Inhibition of Sporosarcina pasteurii CCM 2056 native urease using urea as substrate measured for 1.5 hrs by colorimetric method
[2] = Inhibition of Sporosarcina pasteurii CCM 2056 native urease using urea as substrate preincubated for 1 hr followed by substrate addition and measured for 1.5 hrs by colorimetric method
[3] = Inhibition of -ureolysis in live Helicobacter pylori Tx30a (ATCC 51932) in presence of urea by absorbance based analysis; type: functional
[4] = test system: Sporosarcina pasteurii; assay: Inhibition of Sporosarcina pasteurii CCM 2056 native urease using urea as substrate by colorimetric method; conditions: TDE = time-dependent effect
[5] = test system: Sporosarcina pasteurii; assay: Inhibition of Sporosarcina pasteurii CCM 2056 native urease using urea as substrate in presence of DTT measured for 1.5 hrs by colorimetric method
[6] = test system: Sporosarcina pasteurii; assay: Competitive inhibition of Sporosarcina pasteurii CCM 2056 native urease using urea as substrate in presence of DTT measured for 1.5 hrs by colorimetric method
[7] = Stability of compound in methanol assessed as rate of hydrolysis measured after 3 days by NMR analysis; type: physicochemical; conditions: time 3 day, read-out: Activity
[8] = Cytotoxicity against mouse Balb/3T3-L1 cells assessed as reduction in cell proliferation at 100 uM incubated for 72 hrs by SRB assay relative to control; type: toxicity, cell-based; conditions: read-out: Activity
[9] = Cytotoxicity against mouse Balb/3T3-L1 cells assessed as reduction in cell proliferation at 31.4 uM incubated for 72 hrs by SRB assay relative to control; type: toxicity, cell-based; conditions: read-out: Activity
[10] = Cytotoxicity against mouse Balb/3T3-L1 cells assessed as reduction in cell proliferation at 10 uM incubated for 72 hrs by SRB assay relative to control; type: toxicity, cell-based; conditions: read-out: Activity
[11] = Cytotoxicity against mouse Balb/3T3-L1 cells assessed as reduction in cell proliferation at 3.14 uM incubated for 72 hrs by SRB assay relative to control; type: toxicity, cell-based; design: scale not given: the % may be the effect or the level left; conditions: balb/3t3-l1, 72 h
[12] = Cytotoxicity against mouse Balb/3T3-L1 cells assessed as reduction in cell proliferation at 1 uM incubated for 72 hrs by SRB assay relative to control; type: toxicity, cell-based; conditions: read-out: Activity
[13] = Cytotoxicity against mouse Balb/3T3-L1 cells assessed as reduction in cell proliferation at 0.31 uM incubated for 72 hrs by SRB assay relative to control; type: toxicity, cell-based; conditions: read-out: Activity
[14] = Cytotoxicity against mouse Balb/3T3-L1 cells assessed as reduction in cell proliferation at 0.1 uM incubated for 72 hrs by SRB assay relative to control; type: toxicity, cell-based; design: scale not given: the % may be the effect or the level left; conditions: balb/3t3-l1, 72 h
[15] = Cytotoxicity against HEK293 cells assessed as reduction in cell proliferation at 100 uM incubated for 72 hrs by SRB assay relative to control; type: toxicity, cell-based; conditions: human, read-out: Activity
[16] = Cytotoxicity against HEK293 cells assessed as reduction in cell proliferation at 31.4 uM incubated for 72 hrs by SRB assay relative to control; type: toxicity, cell-based; conditions: human, read-out: Activity
[17] = test system: HEK293; assay: Cytotoxicity against HEK293 cells assessed as reduction in cell proliferation at 10 uM incubated for 72 hrs by SRB assay relative to control; type: toxicity, cell-based; design: scale not given: the % may be the effect or the level left; conditions: human, hek293, 72 h
[18] = Cytotoxicity against HEK293 cells assessed as reduction in cell proliferation at 3.14 uM incubated for 72 hrs by SRB assay relative to control; type: toxicity, cell-based; conditions: human, read-out: Activity
[19] = Cytotoxicity against HEK293 cells assessed as reduction in cell proliferation at 1 uM incubated for 72 hrs by SRB assay relative to control; type: toxicity, cell-based; conditions: human, read-out: Activity
[20] = test system: HEK293; assay: Cytotoxicity against HEK293 cells assessed as reduction in cell proliferation at 0.31 uM incubated for 72 hrs by SRB assay relative to control; type: toxicity, cell-based; design: scale not given: the % may be the effect or the level left; conditions: human, hek293, 72 h
[21] = Cytotoxicity against HEK293 cells assessed as reduction in cell proliferation at 0.1 uM incubated for 72 hrs by SRB assay relative to control; type: toxicity, cell-based; conditions: human, read-out: Activity

O=C(O)C(C[PH](=O)O)c1ccc(O)c(O)c1 (racemic)
pKi [1]: 4.10 | pKi [2]: 4.23 | pIC50 [3]: 4.98 | inhibition [4]: Tde | inhibition [5]: inactive

O=C(O)C(CP(=O)(O)O)c1cc(O)c(O)cc1Br (racemic)
pKi [1]: 4.38 | pKi [2]: 4.46 | pIC50 [3]: 4.30 | inhibition [5]: Active | inhibition [6]: Active

COC(=O)C(CP(=O)(O)CC(C(=O)OC)c1ccc(O)c(O)c1)c1ccc(O)c(O)c1 (mixture of isomers)
pKi [1]: 3.65 | pKi [2]: 5.12 | pIC50 [3]: 3.97 | inhibition [5]: inactive

COC(=O)C(CP(=O)(O)O)c1ccc(O)c(O)c1 (racemic)
pKi [1]: 3.97 | pKi [2]: 4.11 | pIC50 [3]: 4.50 | degraded at 72 h [7]: < 5% | inhibition [5]: Active

O=C(O)CCP(=O)(O)CC(C(=O)O)c1ccc(O)c(O)c1 (racemic)
inhibition at 72 h, 100 µM [8]: 33.2% | inhibition at 72 h, 31.4 µM [9]: 25.8% | inhibition at 72 h, 10 µM [10]: 17.4% | Activity [11]: 17.5% | inhibition at 72 h, 1 µM [12]: 13.4% | inhibition at 72 h, 0.31 µM [13]: 4.9% | Activity [14]: 8% | inhibition at 72 h, 100 µM [15]: 7.7% | inhibition at 72 h, 31.4 µM [16]: 10.4% | Activity [17]: 16.3% | inhibition at 72 h, 3.14 µM [18]: 10.1% | inhibition at 72 h, 1 µM [19]: 8.1% | Activity [20]: 8.5% | inhibition at 72 h, 0.1 µM [21]: 13.5% | pKi [1]: 3.53 | pKi [2]: 5.21 | pIC50 [3]: 5.03 | inhibition [5]: inactive

CC(=O)NO [ACETOHYDROXAMIC ACID]
pKi [2]: 5.48 | pIC50 [3]: 3.81

O=C(O)C(CP(=O)(O)CC(C(=O)O)c1ccc(O)c(O)c1)c1ccc(O)c(O)c1 (mixture of isomers)
pKi [1]: 4.80 | pKi [2]: 5.17 | pIC50 [3]: 4.88 | inhibition [5]: inactive

O=P(O)(O)CCc1ccc(O)c(O)c1
inhibition at 72 h, 100 µM [8]: 17.8% | inhibition at 72 h, 31.4 µM [9]: 18.3% | inhibition at 72 h, 10 µM [10]: 12.7% | Activity [11]: 10.6% | inhibition at 72 h, 1 µM [12]: 15% | inhibition at 72 h, 0.31 µM [13]: 5.9% | Activity [14]: 0.4% | inhibition at 72 h, 100 µM [15]: 15.7% | inhibition at 72 h, 31.4 µM [16]: 15.6% | Activity [17]: 8.4% | inhibition at 72 h, 3.14 µM [18]: 0.1% | inhibition at 72 h, 1 µM [19]: -0.9% | Activity [20]: -3.4% | inhibition at 72 h, 0.1 µM [21]: 2.2% | pKi [1]: 4.75 | pKi [2]: 5.04 | pIC50 [3]: 4.58 | inhibition [5]: Active

O=C(O)C(CP(=O)(O)O)c1ccc(O)c(O)c1 (racemic)
inhibition at 72 h, 100 µM [8]: 34.9% | inhibition at 72 h, 31.4 µM [9]: 24.9% | inhibition at 72 h, 10 µM [10]: 22.1% | Activity [11]: 20.1% | inhibition at 72 h, 1 µM [12]: 18.6% | inhibition at 72 h, 0.31 µM [13]: 15.6% | Activity [14]: 6.7% | inhibition at 72 h, 100 µM [15]: 7.8% | inhibition at 72 h, 31.4 µM [16]: -3% | Activity [17]: -3% | inhibition at 72 h, 3.14 µM [18]: -0.2% | inhibition at 72 h, 1 µM [19]: -0.8% | Activity [20]: -1.6% | inhibition at 72 h, 0.1 µM [21]: 1.4% | pKi [1]: 3.40 | pKi [2]: 5.63 | pIC50 [3]: 6.12 | inhibition [4]: Tde | inhibition [5]: inactive

COC(=O)CCP(=O)(O)CC(C(=O)OC)c1ccc(O)c(O)c1 (stereo not given)
pKi [1]: 3.53 | pKi [2]: 3.64 | pIC50 [3]: 3.39 | degraded at 72 h [7]: < 5% | inhibition [5]: Active

Reference: ChEMBL document CHEMBL5335783, “Inhibitory activity of catecholic phosphonic and phosphinic acids against Helicobacter pylori ureolysis” (Eur J Med Chem, 2023)
